Source: patent US20050202407A1, “Methods and assays for screening anti-neoplastic therapeutic agents” (Baylor College of Medicine, priority 2003, published 2005)

Key:
[1] = Viability assay with MEK inhibitors; settings: human
Protocol: (§1) Cells were infected or transfected in six-well plates. Forty-eight hours after infection or transfection, cells were treated with 1 μM Tg for the time indicated. At the end of the treatments MTS assays were performed using CellTiter 96 aqueous one solution reagent from Promega by a modified version of the procedure. Briefly 300 μl of MTS solution was added to each well and incubated for 1 h at 37° C. One milliliter of reaction or medium mix was transferred from each well to an Eppendorf tube and then centrifuged in a microcentrifuge for 5 min at 4,000 rpm (˜3,000×g). One hundred microliters of supernatant was transferred to each well of a 96-well plate, and the relative viability was determined by the measurement of absorbance at 490 nm in a 96-well plate reader. […] Apoptotic morphology was analyzed with phase-contrast fluorescence microscopy after incubation with 0.2 μg of 4′6′-dismidino-2-phenylindole (DAPI) per ml. The activities of caspases in the cell lysates were analyzed by Western blotting using specific antibodies recognizing procaspases or cleaved forms of caspases, followed by quantitative intensity analysis using software (GelExpert; Nucleo Vision) and normalized to the intensity of β-actin in the same sample.

ERK1/2 = test: Phosphorylated ERK1/2 by Western blot; assay type: cell-based, human; settings: Adcav-1- or AdRSV-infected cells
Protocol: Unless specifically indicated, immunoprecipitation (IP) was performed as follows. Cells were washed with ice-cold phosphate-buffered saline (PBS), lysed on the plates by incubation for 10 min on ice with IP lysis buffer, which consists of 20 mM Tris-HCl (pH 7.5), 150 mM NaCl, 1 mM EDTA, 1 mM EGTA, 1% Triton X-100, 1 mM β-glycerophosphate, 60 mM octylglucoside and protease inhibitor cocktail. Cells were then scraped off the dish, transferred to microcentrifuge tubes, placed on ice for 20 min, and centrifuged for 10 min at high speed in a microcentrifuge at 4° C. The supernatant (cell lysate) was transferred to a fresh tube and frozen at −80° C. until use. Typically, 500 μg of cell lysate proteins were diluted to 500 μl with IP lysis buffer and precleared by incubation with 3 μg of the corresponding immunoglobulin G (IgG) from […] for 30 min at 4° C. on a rocker, followed by the addition of 50 μl of IP lysis buffer-prewashed protein A or G plus agarose and incubation for another 1 h. The cleared cell lysate was incubated with 3 μg of specific antibody or the corresponding IgG overnight at 4° C. on a rocker. […] For regular Western blot analysis, protein concentration in cell lysates was determined by the Bio-Rad protein assay, and 30 μg of protein from each sample was loaded on the gel. β-Actin served as a loading control.

LNCaP cells = test: Viability assay with MEK inhibitors
Protocol: as §1

PI3-K = PI3-K activity assay (TLC); assay type: cell-based, human; settings: 1 μM Tg for 48 h; cav-1-expressing and control LNCaP cells
Protocol: Cell lysates were prepared as described above for the Akt activity assay. PI3-K activity assays were performed as described below. Briefly, 500 μg of cell lysate proteins were immunoprecipitated with monoclonal antibody against phosphotyrosine for 3 h at 4° C. with gentle rocking, and the beads were washed twice with lysis buffer and twice with PI3-K assay buffer (20 mM Tris [pH 7.5], 100 mM NaCl, 0.5 mM EGTA, 20 mM MgCl2). PI was dissolved in chloroform (5 mg/ml) and diluted to 0.5 mg/ml with PI3-K assay buffer, followed by sonication. […] Five microliters of washed chloroform phase from each sample was loaded on a TLC plate and analyzed by ascending chromatography in chloroform-methanol-29.5% ammonium hydroxide-water (90:90:8:19), followed by autoradiography.
Protein expression levels and kinase activities of PI3-K, PDK1, and Akt were determined in cav-1-expressing or vector control LNCaP cells before and after treatment with 1 μM Tg for 48 h (+Tg): (A) PI3-K kinase assay by TLC (top gel); (B) PDK1 IP kinase assay; (C) Akt IP kinase assay using recombinant GSK3 as a substrate. Total protein and phosphorylated protein (indicated by P-prefix before protein name) of each kinase were analyzed and presented in each blot. β-Actin served as a loading control. […]

PDK1 = PDK1 IP kinase assay; assay type: cell-based, human; settings: 1 μM Tg for 48 h; LNCaP cells
Protocol: Cell lysates were prepared as described above. PDK1 activity assay was performed according to the manufacturer's protocol (Upstate Biotechnology). Radioactivity that remained on the P81 paper was read with TopCount (Packard).
Protein expression levels and kinase activities of PI3-K, PDK1, and Akt were determined in cav-1-expressing or vector control LNCaP cells before and after treatment with 1 μM Tg for 48 h (+Tg): (A) PI3-K kinase assay by TLC (top gel); (B) PDK1 IP kinase assay; (C) Akt IP kinase assay using recombinant GSK3 as a substrate. Total protein and phosphorylated protein (indicated by P-prefix before protein name) of each kinase were analyzed and presented in each blot. β-Actin served as a loading control. There was no difference in protein expression levels for PI3-K in cav-1-expressing cells to control vector-infected cells (FIG. 2A). Although PI3-K activity was reduced by Tg treatment, no difference was found between cav-1-expressing and control cells (FIG. 2A). Tg treatment also led to reduced PDK1 activity; however, compared with control RSV-infected cells, PDK1 activity was approximately 17% higher in cav-1-expressing cells and approximately 30% higher in Tg-treated cav-1-expressing cells (FIG. 2B). In the same lysates, there was no difference in PDK1 protein expression (FIG. 2B).

PP1 (catalytic subunit) = target: T1, PP1 (catalytic subunit) (Oryctolagus cuniculus, UniProt P62139); test: In vitro malachite green phosphatase assay with purified cav-1; assay type: biochemical, rabbit; settings: 100 ng purified cav-1, 0.02 U PP1
T1 construct: purchased New England BioLabs
Protocol: (§2) PP1 (catalytic subunit) (0.02 U) or PP2A (core enzyme) (0.01 U) was incubated with or without 100 ng of purified cav-1 protein for 1 h at 4° C. Phosphatase assay buffer and a phosphopeptide (K-R-pT-1-R-R) were added to a final volume of 50 μl. Reactions were initialed by the addition of 200 μM phosphopeptide, and reaction mixtures were incubated at room temperature for 10 min. Reactions were terminated by the addition of 100 μl of malachite green solution. Activities of PP1 and PP2A were determined by the measurement of absorbance at 620 nm.
(§3) To determine whether the effects of cav-1 on PP1 and PP2A are direct and whether cav-1 interacts with and inhibits PP1 and PP2A in vitro, in vitro IP experiments were performed using purified His-V5-tagged human cav-1, PP1 (C subunit), and PP2A (core enzyme). […] The results of in vitro phosphatase assays indicate that the addition of cav-1 reduced PP1 and PP2A activities by approximately 30% under these basic conditions (FIG. 3F). Briefly, cells were treated with purified cav-1 (¢) or not treated with purified cav-1 (£) and relative activity was determined by measuring the optical density at 620 nm (OD620).

PP2A (core enzyme) = target: T2, PP2A (core enzyme) (Homo sapiens, UniProt P67775); test: as above; assay type: biochemical; settings: 100 ng purified cav-1, 0.01 U PP2A
T2 construct: purchased Upstate Biotechnology
Protocol: as §2, §3

T2 sequence (P67775 whole entry): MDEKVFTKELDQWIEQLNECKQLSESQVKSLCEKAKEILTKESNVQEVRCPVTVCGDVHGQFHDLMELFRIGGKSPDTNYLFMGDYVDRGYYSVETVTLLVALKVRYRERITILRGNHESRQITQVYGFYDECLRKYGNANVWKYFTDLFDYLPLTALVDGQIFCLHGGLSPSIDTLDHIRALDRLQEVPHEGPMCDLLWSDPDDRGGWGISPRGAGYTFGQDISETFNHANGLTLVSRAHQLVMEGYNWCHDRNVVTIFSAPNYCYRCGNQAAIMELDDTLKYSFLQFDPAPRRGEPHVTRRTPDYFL
T2 sequence (P30153 2-589 partner limits assumed): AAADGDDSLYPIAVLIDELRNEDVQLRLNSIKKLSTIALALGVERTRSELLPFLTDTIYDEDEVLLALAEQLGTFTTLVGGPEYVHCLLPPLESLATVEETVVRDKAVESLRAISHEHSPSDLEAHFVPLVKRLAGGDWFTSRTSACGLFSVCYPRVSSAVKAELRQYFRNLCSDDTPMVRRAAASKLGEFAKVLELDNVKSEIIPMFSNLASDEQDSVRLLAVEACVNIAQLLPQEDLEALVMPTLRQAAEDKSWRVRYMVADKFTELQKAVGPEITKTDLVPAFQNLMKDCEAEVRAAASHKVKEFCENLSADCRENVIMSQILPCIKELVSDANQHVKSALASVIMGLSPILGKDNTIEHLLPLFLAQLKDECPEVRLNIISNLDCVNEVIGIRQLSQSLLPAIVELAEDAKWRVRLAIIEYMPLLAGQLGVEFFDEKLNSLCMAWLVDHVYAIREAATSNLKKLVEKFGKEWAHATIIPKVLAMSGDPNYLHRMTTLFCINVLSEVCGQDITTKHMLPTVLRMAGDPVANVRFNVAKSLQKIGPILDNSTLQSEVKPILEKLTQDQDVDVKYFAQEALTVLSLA
T1 sequence (P62139 whole entry): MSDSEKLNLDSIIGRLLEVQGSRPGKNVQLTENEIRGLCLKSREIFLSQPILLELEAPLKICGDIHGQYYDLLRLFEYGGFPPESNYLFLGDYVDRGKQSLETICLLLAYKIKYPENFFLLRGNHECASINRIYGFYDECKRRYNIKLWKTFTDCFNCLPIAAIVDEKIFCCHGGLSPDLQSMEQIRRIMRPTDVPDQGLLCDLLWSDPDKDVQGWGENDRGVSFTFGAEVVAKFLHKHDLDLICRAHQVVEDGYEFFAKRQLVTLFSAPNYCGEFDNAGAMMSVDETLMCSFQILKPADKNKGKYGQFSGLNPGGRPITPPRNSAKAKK

With `N#CC(=C(/N)Sc1ccccc1N)/C(C#N)=C(\N)Sc1ccccc1N` [U0126] the cytotoxicity [1] was roughly 15% and the “phosphorylated ERK1/2” value (ERK1/2) was “reduction”.

In the case of `COc1cccc(-c2cc(=O)c3ccccc3o2)c1N` [PD98059], the “reduction of cell viability” value (LNCaP cells) is reported as roughly 20% and the “phosphorylated ERK1/2” value (ERK1/2) is reported as “reduction”.

In the case of `C/C=C(/C)C(=O)O[C@H]1C(C)=C2[C@H]([C@@H]1OC(=O)CCCCCCC)[C@@](C)(OC(C)=O)C[C@H](OC(=O)CCC)[C@@]1(O)[C@H]2OC(=O)[C@@]1(C)O` [Tg, thapsigargin], the PI3-K activity (PI3-K) is reported as “reduced” and the PDK1 activity (PDK1) is reported as “reduced”.

B1: purified cav-1: purified His-V5-tagged human cav-1 protein (protein, UniProt Q03135 2-178, looked up)
Caveolin-1: SGGKYVDSEGHLYTVPIREQGNIYKPNNKAMADELSEKQVYDAHTKEIDLVNRDPKHLNDDVVKIDFEDVIAEPEGTHSFDGIWKASFTTFTVTKYWFYRLLSALFGIPMALIWGIYFAILSFLHIWAVVPCIKSFLIEIQCISRVYSIYVHTVCDPLFEAVGKIFSNVRINLQKEI
modifications: His-V5 tag
notes: purified His-V5-tagged human cav-1 protein
With B1 the “reduction of PP1 activity” value (PP1 (catalytic subunit)) was “approximately 30%” and the “reduction of PP2A activity” value (PP2A (core enzyme)) was “approximately 30%”.
